# Test system: mouse
# Test: Forced Swim Test (FST) in the mouse
# Assay type: in vivo
# Procedure: The duration of immobility during the last four minutes of the six minute test period is scored. A mouse is recorded as immobile when floating motionless or making only those movements necessary to keep its head above water.
# An augmentation of action would be reflected by a reduction in immobility that is greater than the arithimetic sum of the effect of each agent alone. […] Standard statistical tests can be used to determine if this difference is significant. The same general strategy can be applied to the forced swim test as carried out in rats (below) as well as the tail suspension test, also described below.
structure (smiles),measurement,setting,value
CC(CNS(=O)(=O)C(C)C)c1ccc(-c2ccsc2)cc1 (stereo not shown) [Example 392098],minimum effective dose (MED) in the Forced Swim Test,"392098 alone, i.p., mice",0.5 mg/kg
same,immobility of the mouse in the Forced Swim Test,392098 at a dose as low as 25 micrograms/kg combined with a subeffective dose of imipramine (5 mg/kg),statistically significant reduction in immobility
same,effect in the Forced Swim Test,"392098 by itself, low doses (0.025-0.1 mg/kg), mice",no effect
same,shift in the dose response curve of 392098,"administered in combination with a subeffective dose of imipramine, Forced Swim Test, mice",at least 20 fold
